Laboratory results taken from the NIST ThermoML archive (doi:10.1016/j.fluid.2015.03.031).

Experiment: cn = amount concentration of the nth substance listed, in mol/dm3
Details: 101 kPa, Liquid; for viscosity: Capillary tube (Ostwald / Ubbelohde) method; for mass density: Pycnometric method

NCCCC[C@H](N)C(=O)[O-].[K+] [potassium L-lysinate] + O
Details	mass density, 298 K [kg/m3]	mass density, 308 K [kg/m3]	mass density, 313 K [kg/m3]	viscosity, 298 K [mPa·s]	viscosity, 308 K [mPa·s]	viscosity, 313 K [mPa·s]
c1 = 0.5	1038.6	1036.3	1030.7	1.162	0.9848	0.894
c1 = 1.5	1108.9	1107.5	1105.1	2.284	1.905	1.686
c1 = 2.5	1173.8	1171.1	1168.8	3.165	2.653	2.416
